The values that follow come from patent US20240299385A1 (ReWind Therapeutics NV, priority 2021, published 2024).

SMILES strings stand for the structures. Bounds are passed on as bounds.

T1 sequence (Q13304 whole entry): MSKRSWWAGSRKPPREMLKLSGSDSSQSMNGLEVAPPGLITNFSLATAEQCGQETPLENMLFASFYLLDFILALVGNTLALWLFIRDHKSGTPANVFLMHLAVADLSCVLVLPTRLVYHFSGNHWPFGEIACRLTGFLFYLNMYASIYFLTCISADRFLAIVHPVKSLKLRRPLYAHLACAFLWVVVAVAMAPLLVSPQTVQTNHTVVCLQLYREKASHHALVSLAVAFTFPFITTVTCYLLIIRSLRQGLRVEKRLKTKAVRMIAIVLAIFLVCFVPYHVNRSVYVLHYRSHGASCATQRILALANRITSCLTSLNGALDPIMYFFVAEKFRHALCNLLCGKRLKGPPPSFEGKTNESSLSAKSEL

The experiment concerns the target T1, human GPR17 receptor (Homo sapiens, UniProt Q13304).
T1 construct: host or cells: HEK-293
Description: Calcium mobilization functional assay (Fluo-8, FLIPR TETRA) in HEK-293 hGPR17 (Gα-q assay). It is filed as cell-based. The conditions noted are these: antagonism of MDL29,951 (~EC80) induced Ca2+ signal; cell line (HEK-293 hGPR17 or HEK-293 Suchi5 hGPR17) not given. How it is done:
HEK-293 cells stably expressing the human GPR17 receptor (HEK-293 hGPR17) developed by Axxam (Bresso, Milan, Italy) were cultured at 37° C. in a humidified atmosphere of 5% CO2. Cells were grown in EMEM supplemented with FBS (10%), Penicillin/Streptomycin (1%), Ultraglutamine I (2 mM), puromycin (0.6 μg/mL), G418 (0.4 mg/mL), zeocin (50 μg/mL). This cell line was used to test the compound antagonistic activity by monitoring the Gα-q based signaling. Signaling via Gα-q leads to mobilization of calcium from internal stores. Elevated intracellular calcium levels can then be measured with calcium-sensitive fluorescent dyes (e.g., Fluo 8-No Wash Dye).
GPR17 activation leads to both an increase in intracellular calcium (via Gα-q) and a decrease in cAMP levels (via Gα-i), implicating that both of these pathways play a role for in vivo function.
Experiments were performed using the below cell lines, as described in part 1: • HEK-293 hGPR17 (used to study the compounds acting via Gα-q pathway) • HEK-293 Suchi5 hGPR17 (used to study the compounds acting via Gα-i pathway, where the Gα-i signaling is switched to a Gα-q signaling thanks to the Gα-i/q chimera Suchi5)
GPR17 activation was able to induce an endoplasmic reticulum calcium (Ca^2+) store release in cytosol which could be measured using the fluorescent Ca^2+ sensitive dye Fluo-8 No Wash Dye as readout.
HEK-293 hGPR17 and HEK-293 Suchi5 hGPR17 were seeded at a density of 15,000 cells/well into poly-D-lysine coated black 384-well plates with clear bottom in complete medium. Cells were incubated overnight at 37° C. in a humidified atmosphere of 5% CO2. Twenty-four hours after seeding, the culture medium was carefully removed manually and the cells were loaded for 60 minutes at room temperature with the Ca^2+ sensitive Fluo-8 No Wash Dye, according to manufacturer's instructions. Cells were then assayed using a fluorometric imaging plate reader (FLIPR^TETRA). Fluorescence (excitation: 470-495 nm; emission: 515-575 nm) was recorded during the experiment. […] After twenty minutes, a second injection of MDL29,951 at ˜EC80 (500 nM for HEK-293 hGPR17 and 2 nM for HEK-293 Suchi5 hGPR17) in assay buffer was performed at the FLIPR^TETRA and the signal of the emitted fluorescence was recorded for additional 2 minutes. All the compound injections and incubations were performed in duplicate. For data quality and data analysis the Screener® 16.0.6 (Genedata) software was used.
(In general: Calcium assays in cells follow changes in intracellular calcium, usually with a dye or a luminescent sensor.)
The term IC50 denotes the concentration that inhibits the measured activity by half. Turning to `CC(c1ccccn1)c1cc(S(=O)(=O)Nc2ccc(C#N)cc2F)c[nH]1` (stereo not shown), the IC50 fell in the range of 5000 to 50000 nM.
For the compound `Cc1[nH]c(-c2ccccc2)cc1S(=O)(=O)Nc1ccc(C#N)cc1F` [Cpd 001, N-(4-cyano-2-fluorophenyl)-2-methyl-5-phenyl-1H-pyrrole-3-sulfonamide], the IC50 lay in the range of 500 to 5000 nM.
In the case of `N#Cc1ccc(NS(=O)(=O)c2c[nH]c(-c3ccccc3)c2)c(F)c1` [Cpd 002, N-(4-cyano-2-fluorophenyl)-5-phenyl-1H-pyrrole-3-sulfonamide] it was < 500 nM; in that of `O=S(=O)(Nc1cc(F)c(Br)cc1F)c1c[nH]c(-c2ccccc2)c1` [Cpd 003, N-(4-bromo-2,5-difluoro-phenyl)-5-phenyl-1H-pyrrole-3-sulfonamide], < 500 nM; in that of `N#Cc1ccc(NS(=O)(=O)c2c[nH]c(-c3cccc(F)c3)c2)c(F)c1` [Cpd 004, N-(4-cyano-2-fluoro-phenyl)-5-(3-fluorophenyl)-1H-pyrrole-3-sulfonamide], < 500 nM.
As for `Cc1cccc(-c2cc(S(=O)(=O)Nc3ccc(C#N)cc3F)c[nH]2)c1` [Cpd 005, N-(4-cyano-2-fluoro-phenyl)-5-(m-tolyl)-1H-pyrrole-3-sulfonamide], the IC50 is < 500 nM.
With `N#Cc1ccc(NS(=O)(=O)c2c[nH]c(-c3cccc(Cl)c3)c2)c(F)c1` [Cpd 006, 5-(3-chlorophenyl)-N-(4-cyano-2-fluoro-phenyl)-1H-pyrrole-3-sulfonamide], the IC50 is < 500 nM.
Take `N#Cc1ccc(NS(=O)(=O)c2c[nH]c(-c3ccc(F)cc3)c2)c(F)c1` [Cpd 007, N-(4-cyano-2-fluoro-phenyl)-5-(4-fluorophenyl)-1H-pyrrole-3-sulfonamide]: the IC50 is < 500 nM.
In the case of `Cc1ccc(-c2cc(S(=O)(=O)Nc3ccc(C#N)cc3F)c[nH]2)cc1` [Cpd 008, N-(4-cyano-2-fluoro-phenyl)-5-(p-tolyl)-1H-pyrrole-3-sulfonamide], the IC50 is 500 to 5000 nM.
As for `N#Cc1ccc(NS(=O)(=O)c2c[nH]cc2-c2ccccc2)c(F)c1` [Cpd 009, N-(4-cyano-2-fluorophenyl)-4-phenyl-1H-pyrrole-3-sulfonamide], the half-inhibitory concentration (IC50) fell in the range of 500 to 5000 nM.
On to `COc1cccc(-c2cc(S(=O)(=O)Nc3ccc(C#N)cc3F)c[nH]2)c1` [Cpd 010, N-(4-cyano-2-fluoro-phenyl)-5-(3-methoxyphenyl)-1H-pyrrole-3-sulfonamide], for which the IC50 was < 500 nM.
With `N#Cc1ccc(NS(=O)(=O)c2c[nH]c(-c3ccc(Cl)cc3)c2)c(F)c1` [Cpd 011, 5-(4-chlorophenyl)-N-(4-cyano-2-fluoro-phenyl)-1H-pyrrole-3-sulfonamide], the IC50 was 500 to 5000 nM.
Turning to `COc1ccc(-c2cc(S(=O)(=O)Nc3ccc(C#N)cc3F)c[nH]2)cc1` [Cpd 012, N-(4-cyano-2-fluoro-phenyl)-5-(4-methoxyphenyl)-1H-pyrrole-3-sulfonamide], the IC50 fell in the range of 5000 to 50000 nM.
Consider `N#Cc1ccc(NS(=O)(=O)c2c[nH]c(C(=O)c3ccccc3)c2)c(F)c1` [Cpd 013, 5-benzoyl-N-(4-cyano-2-fluoro-phenyl)-1H-pyrrole-3-sulfonamide], for which the IC50 was 5000 to 50000 nM.
As to `N#Cc1ccc(NS(=O)(=O)c2c[nH]c(-c3ccccc3F)c2)c(F)c1` [Cpd 014, N-(4-cyano-2-fluorophenyl)-5-(2-fluorophenyl)-1H-pyrrole-3-sulfonamide], the IC50 was < 500 nM.
With `Cc1ccccc1-c1cc(S(=O)(=O)Nc2ccc(C#N)cc2F)c[nH]1` [Cpd 015, N-(4-cyano-2-fluoro-phenyl)-5-(o-tolyl)-1H-pyrrole-3-sulfonamide], the IC50 is < 500 nM.
With `N#Cc1ccc(NS(=O)(=O)c2c[nH]c(-c3ccccc3Cl)c2)c(F)c1` [Cpd 016, 5-(2-chlorophenyl)-N-(4-cyano-2-fluoro-phenyl)-1H-pyrrole-3-sulfonamide], the IC50 is < 500 nM.
`COc1ccccc1-c1cc(S(=O)(=O)Nc2ccc(C#N)cc2F)c[nH]1` [Cpd 017, N-(4-cyano-2-fluoro-phenyl)-5-(2-methoxyphenyl)-1H-pyrrole-3-sulfonamide]: the IC50 was < 500 nM.
With `N#Cc1ccc(NS(=O)(=O)c2c[nH]c(C3CCCC3)c2)c(F)c1` [Cpd 018, N-(4-cyano-2-fluorophenyl)-5-cyclopentyl-1H-pyrrole-3-sulfonamide], the IC50 was 500 to 5000 nM.
Consider `N#Cc1ccc(NS(=O)(=O)c2c[nH]c(Cc3ccccc3)c2)c(F)c1` [Cpd 019, 5-benzyl-N-(4-cyano-2-fluoro-phenyl)-1H-pyrrole-3-sulfonamide], for which the IC50 was 500 to 5000 nM.
With `N#Cc1ccc(NS(=O)(=O)c2cc(-c3ccccc3)[nH]c2F)c(F)c1` [Cpd 020, N-(4-cyano-2-fluorophenyl)-2-fluoro-5-phenyl-1H-pyrrole-3-sulfonamide], the IC50 is 500 to 5000 nM.
For `N#Cc1ccc(NS(=O)(=O)c2c[nH]c(-c3cccc(C(F)(F)F)c3)c2)c(F)c1` [Cpd 021, N-(4-cyano-2-fluoro-phenyl)-5-[3-(trifluoromethyl)phenyl]-1H-pyrrole-3-sulfonamide], the IC50 was in the range of 500 to 5000 nM.
Consider `CC(C)c1cccc(-c2cc(S(=O)(=O)Nc3ccc(C#N)cc3F)c[nH]2)c1` [Cpd 022, N-(4-cyano-2-fluoro-phenyl)-5-(3-isopropylphenyl)-1H-pyrrole-3-sulfonamide], for which the IC50 lay in the range of 5000 to 50000 nM.
Turning to `N#Cc1ccc(NS(=O)(=O)c2c[nH]c(-c3ccccc3)c2F)c(F)c1` [Cpd 023, N-(4-cyano-2-fluorophenyl)-4-fluoro-5-phenyl-1H-pyrrole-3-sulfonamide], the IC50 was < 500 nM.
Take `N#Cc1ccc(NS(=O)(=O)c2c[nH]c(-c3ccncc3)c2)c(F)c1` [Cpd 024, N-(4-cyano-2-fluoro-phenyl)-5-(4-pyridyl)-1H-pyrrole-3-sulfonamide]: the IC50 was in the range of 5000 to 50000 nM.
`N#Cc1cccc(-c2cc(S(=O)(=O)Nc3ccc(C#N)cc3F)c[nH]2)c1` [Cpd 025, N-(4-cyano-2-fluoro-phenyl)-5-(3-cyanophenyl)-1H-pyrrole-3-sulfonamide]: the IC50 was < 500 nM.
Consider `N#Cc1ccc(NS(=O)(=O)c2c[nH]c(-c3ccccn3)c2)c(F)c1` [Cpd 026, N-(4-cyano-2-fluoro-phenyl)-5-(2-pyridyl)-1H-pyrrole-3-sulfonamide], for which the IC50 was < 500 nM.
As for `N#Cc1ccc(NS(=O)(=O)c2c[nH]c(-c3cccnc3)c2)c(F)c1` [Cpd 027, N-(4-cyano-2-fluoro-phenyl)-5-(3-pyridyl)-1H-pyrrole-3-sulfonamide], the IC50 is 500 to 5000 nM.
`N#Cc1cc(F)c(NS(=O)(=O)c2c[nH]c(-c3ccccc3)c2)cc1F` [Cpd 028, N-(4-cyano-2,5-difluoro-phenyl)-5-phenyl-1H-pyrrole-3-sulfonamide]: the IC50 was < 500 nM.
Regarding `Cc1cc(C#N)ccc1NS(=O)(=O)c1c[nH]c(-c2ccccc2)c1` [Cpd 029, N-(4-cyano-2-methyl-phenyl)-5-phenyl-1H-pyrrole-3-sulfonamide], the IC50 lay within 5000 to 50000 nM.
In the case of `COc1cc(C#N)ccc1NS(=O)(=O)c1c[nH]c(-c2ccccc2)c1` [Cpd 030, N-(4-cyano-2-methoxy-phenyl)-5-phenyl-1H-pyrrole-3-sulfonamide] it was 500 to 5000 nM; in that of `Cc1cc(NS(=O)(=O)c2c[nH]c(-c3ccccc3)c2)ccc1C#N` [Cpd 031, N-(4-cyano-3-methyl-phenyl)-5-phenyl-1H-pyrrole-3-sulfonamide], 500 to 5000 nM.
`COc1ccc(NS(=O)(=O)c2c[nH]c(-c3ccccc3)c2)c(F)c1` [Cpd 032, N-(2-fluoro-4-methoxy-phenyl)-5-phenyl-1H-pyrrole-3-sulfonamide]: the IC50 lay within 5000 to 50000 nM.
As for `Cc1c(S(=O)(=O)Nc2ccc(C#N)cc2F)c[nH]c1-c1ccccc1` [Cpd 033, N-(4-cyano-2-fluoro-phenyl)-4-methyl-5-phenyl-1H-pyrrole-3-sulfonamide], the figure is < 500 nM; as for `N#Cc1ccc(NS(=O)(=O)c2c[nH]cc2Cc2ccccc2)c(F)c1` [Cpd 034, 4-benzyl-N-(4-cyano-2-fluorophenyl)-1H-pyrrole-3-sulfonamide], < 500 nM.
Take `N#Cc1ccc(NS(=O)(=O)c2c[nH]c(-c3ccccc3)c2)cc1F` [Cpd 035, N-(4-cyano-3-fluoro-phenyl)-5-phenyl-1H-pyrrole-3-sulfonamide]: the IC50 is < 500 nM.
In the case of `N#Cc1ccc(NS(=O)(=O)c2c[nH]c(-c3ccccc3)c2)c(Cl)c1` [Cpd 036, N-(2-chloro-4-cyano-phenyl)-5-phenyl-1H-pyrrole-3-sulfonamide], the IC50 was in the range of 500 to 5000 nM.
